Experiments:
[1] = test system: pancreatic tumours in KPC mice; settings: Science 2009; cited from earlier work
[2] = test system: advanced pancreatic cancer; settings: patients with advanced pancreatic cancer; cited from earlier work
[3] = test system: KPC cell line orthotopic pancreatic tumours; settings: treatment at the induction of tumours; over 49 days (FIG. 1); OPN-305 10 mg/kg i.v. once weekly, Gemcitabine 100 mg/kg i.p. twice weekly, Abraxane 10 mg/kg i.v. day 0
From the text: A preclinical mouse model of pancreatic cancer was established where a KPC cell line derived from the genetically engineered ‘KPC’ mouse with pancreas-specific mutant Kras and mutant TP53 genetic background (LSL-KrasG12D; p53R172H, Pdx1-Cre) backcrossed several generations with C57Bl/6 mice was implanted as allograft, orthotopically in the pancreas of C57bl/6 (B6) mice. In brief, a subcutaneous tumour was first established by injecting 2.5 million cells under the skin of C57Bl/6 mice. Ten days later, the tumour was excised and chopped into smaller pieces, roughly 1 mm^3 in size, and implanted orthotopically into pancreas of C57Bl/6 mice. For orthotopic implantation into the pancreas, each mouse was anesthetized with 2.5% Avertin, 0.013 ml/g B.W. All surgical procedures were performed under aseptic conditions with use of sterile gloves and autoclaved instruments. The skin was disinfected with betadine followed by alcohol and this procedure was repeated twice. A left lateral oblique incision was made through the skin and then through the body wall just below the stomach. […] The growth of orthotopic tumours were measured over the period of 12-16 weeks by non-invasive ultrasound (Vevo2100, VisualSonic). […] The orthotopically implanted tumours were measured by ultrasound 5 days post-surgery and randomized into various treatment arms as below: • 1. […]

**Q.** With `Nc1ccn([C@@H]2O[C@H](CO)[C@@H](O)C2(F)F)c(=O)n1` [Gemcitabine] as the molecule, how does the “tumours demonstrating a change in growth kinetics after treatment” value [1] read?
**A.** 12%

**Q.** And the “improvement in median survival duration” value [2]?
**A.** 5 week

**Q.** With “OPN-305: humanized version of T2.5, a murine IgG1 anti-TLR2 antibody; described in WO2011/003925” as the molecule, how does the tumour volume [3] read?
**A.** reduced tumour volume to a greater extent than treatment with a combination of Gemcitabine+Abraxane

From US10047164B2, “Methods and compositions for the treatment of pancreatic cancer” (Opsona Therapeutics Ltd., priority 2012, dated 2018)
